Where “and” joins values, the source holds several entries; their conditions need not be identical. Equal values may be shown once.
Columns and labels:
N1-S1 hepatoma = assay: Additional comparison study, hepatocellular rat model, TAE combined with anti-glycolytic agents (Example 2); assay type: in vivo, Sprague Dawley rats; conditions: over four weeks
Procedure: To determine if anti-glycolytic agents (AG) combined with transarterial embolization (TAE) improves treatment of an N1-S1 tumor model implanted in Sprague-Dawley rat livers. The animal experiments were approved by the Institutional Animal Care and Use Committee. […] The agents were slowly injected within 2 minutes. […] Tumor volume (V) was calculated by the formula: V=0.5*L*W*H. Relative tumor volume after treatment was calculated as the percentage of pre-treatment tumor volume. Kruskal-Wallis test with Minitab 16 was used to compare the difference of relative tumor volume between 4 groups on each observation time point.

HIF-1α = assay: Western blot of HIF-1α in tumor tissue; assay type: in vivo, athymic nude mice; conditions: after 3 weeks of therapy, vs saline control
Procedure: (§1) Once the final DCE-MRI scans were complete at the end of the therapy, the mice were intravenously injected with 60 mg/kg of pimonidazole, an established marker for the detection of tissue hypoxia. After one hour following the pimonidazole staining, the tumors from these mice were resected for further biological analysis. Half of each tumor that was collected was snap-frozen in liquid nitrogen for western blot, while the other half was sliced into thin sections and formalin-fixed/paraffin-imbedded for immunohistochemistry (IHC) staining. For western blot, cell lysates from the frozen tissue were prepared by homogenizing entire tumor tissues in RIPA lysis buffer supplemented with a Halt protease inhibitor cocktail (Thermo Fisher Scientific). […] The blots were blocked for 1 hr and then stained overnight at 4° C. with primary antibodies for HIF-1α and β-actin, the latter of which serving as the housekeeper control. Image J software was utilized to quantify the relative protein expression of HIF-1α from the blots by calculating the total pixel intensity from each protein band, and then normalizing these signals with its corresponding β-actin stain. Sections of the formalin-fixed tissue were stained with the antibodies for CD31 and the Ki67 nuclear proliferation marker. They were also stained with a primary antibody for the detection of the pimonidazole hypoxia marker. […]

[1] = system: HT29 colon adenocarcinoma xenografts; assay: Tumor growth measured with a caliper; assay type: in vivo, athymic nude mice; conditions: any point during the 3-week administration period
Procedure: (§2) The anti-angiogenic effects of bumetanide were investigated in a mouse model bearing subcutaneous HT29 colon adenocarcinoma xenografts. HT29 cells were initially cultured in McCoy's 5A growth media (ATCC), supplemented with 10% FBS, […] of streptomycin, and 100 units/mL of penicillin (Invitrogen). A total of 1×10^6 cells were then inoculated into athymic nude mice in a 250 μL volume of Matrigel (BD Biosciences). Before the start of treatment, tumors were allowed to grow for 10 days, until they were approximately 0.5 cm in diameter. This study comprised of 2 groups of 3 mice, one of which was treated with bumetanide, and the other with a saline control. The drug and saline control were injected intraperitoneally on a daily basis for 3 weeks, with a bumetanide dose of 10 mg/kg. All mice were sacrificed on day 21 of the treatment regimen. Tumor growth was measured at several time points during the therapy with a caliper. Volumes were calculated using the formula […], where D1 and D2 were two diameters measured along perpendicular axes of the tumor lesion.

CD31 = assay: IHC stain for CD31 in tumor tissue; assay type: in vivo, athymic nude mice; conditions: after 3-week therapy, tumor periphery and core, vs saline control
Procedure: as §1

VEGF = assay: Western blot and IHC of VEGF in tumor tissue; assay type: in vivo, athymic nude mice; conditions: after 3 weeks of therapy; western blot; vs saline control
Text: Dynamic contrast-enhanced (DCE) MRI is a non-invasive imaging technique that is able to quantify the anatomical and physiological progression of tumor angiogenesis in response to a variety of different cancer therapies. In order to allow for the safe use of macromolecular contrast medium, a novel polydisulfide-based agent, poly([(Gd-DOTA)-DETA]-co-DTBP) (GODP) was designed, which initially starts as a macromolecular agent during an DCE-MRI protocol, and is then gradually degraded by endogenous thiols in the reductive environment of the bloodstream to improve renal clearance. In this study, two groups of 3 mice, bearing flank HT29 colon cancer xenografts, were treated daily with either bumetanide or saline for a total of 3 weeks. DCE-MRI was performed before and after the start of treatment on a weekly basis, and the collected was analyzed using the adiabiatic approximation to the tissue homogeneity (AATH) model. IHC and western blot analysis was performed to study the changes in CD31, VEGF, and tissue hypoxia. […] Image J software was utilized to quantify the relative protein expression of HIF-1α from the blots by calculating the total pixel intensity from each protein band, and then normalizing these signals with its corresponding β-actin stain. […]

[2] = system: HT29 colon cancer xenografts; assay: Pimonidazole staining of tumor hypoxia; assay type: in vivo, athymic nude mice; conditions: after 3-week therapy; vs saline control
Procedure: as §1

Ki67 = assay: IHC stain for Ki67 proliferation marker in tumor tissue; assay type: in vivo, athymic nude mice; conditions: after 3-week therapy, mean±SD
Procedure: Once the final DCE-MRI scans were complete at the end of the therapy, the mice were intravenously injected with 60 mg/kg of pimonidazole, an established marker for the detection of tissue hypoxia. After one hour following the pimonidazole staining, the tumors from these mice were resected for further biological analysis. Half of each tumor that was collected was snap-frozen in liquid nitrogen for western blot, while the other half was sliced into thin sections and formalin-fixed/paraffin-imbedded for immunohistochemistry (IHC) staining. For western blot, cell lysates from the frozen tissue were prepared by homogenizing entire tumor tissues in RIPA lysis buffer supplemented with a Halt protease inhibitor cocktail (Thermo Fisher Scientific). […] Image J software was utilized to quantify the relative protein expression of HIF-1α from the blots by calculating the total pixel intensity from each protein band, and then normalizing these signals with its corresponding β-actin stain. […]
Despite the fact that bumetanide inhibited angiogenesis and induced vascular regression, the therapy was not able to slow down the tumor growth rate over the course of the study. […] A Ki67 index was calculated by determining the percentage of nuclei in a given area of the tissue expressed this factor.

[3] = system: HT29 colon cancer xenografts; assay: DCE-MRI with GODP, AATH model, tumor vascularity; assay type: in vivo, athymic nude mice; conditions: 3-week time point; 10 mg/kg i.p. daily; entire tumor; mean±SD
Text: Dynamic contrast-enhanced (DCE) MRI is a non-invasive imaging technique that is able to quantify the anatomical and physiological progression of tumor angiogenesis in response to a variety of different cancer therapies. In order to allow for the safe use of macromolecular contrast medium, a novel polydisulfide-based agent, poly([(Gd-DOTA)-DETA]-co-DTBP) (GODP) was designed, which initially starts as a macromolecular agent during an DCE-MRI protocol, and is then gradually degraded by endogenous thiols in the reductive environment of the bloodstream to improve renal clearance. In this study, two groups of 3 mice, bearing flank HT29 colon cancer xenografts, were treated daily with either bumetanide or saline for a total of 3 weeks. DCE-MRI was performed before and after the start of treatment on a weekly basis, and the collected was analyzed using the adiabiatic approximation to the tissue homogeneity (AATH) model. IHC and western blot analysis was performed to study the changes in CD31, VEGF, and tissue hypoxia.
as §2, with “The drug and saline control were injected intraperitoneally on a daily basis for 3 weeks, with a bumetanide dose of 10 mg/kg. All mice were sacrificed on day 21 of the treatment regimen.” left out
Changes in the tumor vascularity were monitored during the treatment by DCE-MRI. […]

| SMILES | relative tumor volume comparing the different treatments (FIG. 25) (N1-S1 hepatoma) | HIF-1α expression greater than in control tumors (HIF-1α) | tumor size versus saline control [1] | CD31 expression (CD31) | VEGF protein levels lower than in control tumors (VEGF) [%] | tumor hypoxia (pimonidazole staining intensity) [2] | Ki67 index (percentage of nuclei expressing Ki67) (Ki67) [%] | average decrease in Fp (blood flow rate) between pre- and post-treatment levels [3] [%] | average reduction in PS (permeability-surface area product) from pre-treatment level [3] [%] | average reduction in Vp (fractional plasma volume) from pre-treatment level [3] [%] |
| --- | --- | --- | --- | --- | --- | --- | --- | --- | --- | --- |
| CCCCNc1cc(C(=O)O)cc(S(N)(=O)=O)c1Oc1ccccc1 [bumetanide, 3-butylamino-4-phenoxy-5-sulfamoyl-benzoic acid] | effective at reducing tumor volume | 59.1% and 59.2% | no significant difference | significant decrease | 42.9 | increase | ~24.7±4.51 | 71.2±8.01 | 72.2±9.26 | 75.6±8.97 |
| O=C(O)/C=C/c1ccc(O)c(O)c1 [caffeic acid] | effective at reducing tumor volume |  |  |  |  |  |  |  |  |  |
| COc1cc(/C=C/C(=O)O)ccc1O [ferulic acid] | effective at reducing tumor volume |  |  |  |  |  |  |  |  |  |
